Test results as given in the supplement of paper PMC7796163.
± gives the uncertainty stated by the source.

How the values were obtained:
Assay in all cases: CYP enzyme activity (probe substrate metabolite formation) fold change vs solvent control; higher = stronger induction of CYP activity
Conditions in all cases: HepaRG
CYP1A2 = target: T1, CYP1A2 (UniProt P05177)
T1 sequence (whole entry): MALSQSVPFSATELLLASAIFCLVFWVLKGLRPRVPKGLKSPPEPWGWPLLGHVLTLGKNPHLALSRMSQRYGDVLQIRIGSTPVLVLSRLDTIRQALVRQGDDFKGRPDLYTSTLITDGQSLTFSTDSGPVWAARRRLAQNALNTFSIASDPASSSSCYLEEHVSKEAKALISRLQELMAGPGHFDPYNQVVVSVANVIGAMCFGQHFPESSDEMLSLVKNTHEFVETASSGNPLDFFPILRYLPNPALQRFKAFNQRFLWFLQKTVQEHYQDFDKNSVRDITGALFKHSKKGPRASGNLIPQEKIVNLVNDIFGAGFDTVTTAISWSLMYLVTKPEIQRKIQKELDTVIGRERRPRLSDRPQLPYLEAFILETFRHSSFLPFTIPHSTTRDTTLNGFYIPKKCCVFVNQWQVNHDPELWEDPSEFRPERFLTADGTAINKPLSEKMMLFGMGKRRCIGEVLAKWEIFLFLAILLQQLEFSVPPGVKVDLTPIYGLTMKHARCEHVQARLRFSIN
Procedure: (§1)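 Differentiated HepaRG cells were treated with 1, 5 or 10 µM of each PAH (0.5% DMSO) for 12, 24 or 48 h, then incubated for 3 h at 37 °C with a cocktail of isoform-specific CYP substrates (phenacetin for CYP1A2, bupropion for CYP2B6, amodiaquine for CYP2C8, tolbutamide for CYP2C9, mephenytoin for CYP2C19, propafenone for CYP2D6, atorvastatin for CYP3A4). Metabolite formation was quantified by LC-MS as a measure of CYP activity and reported as fold change over solvent control (mean ± SD, n=3). Values below the LLOQ were set to half the LLOQ.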

CYP2B6 = target: T2, CYP2B6 (UniProt P20813)
T2 sequence (whole entry): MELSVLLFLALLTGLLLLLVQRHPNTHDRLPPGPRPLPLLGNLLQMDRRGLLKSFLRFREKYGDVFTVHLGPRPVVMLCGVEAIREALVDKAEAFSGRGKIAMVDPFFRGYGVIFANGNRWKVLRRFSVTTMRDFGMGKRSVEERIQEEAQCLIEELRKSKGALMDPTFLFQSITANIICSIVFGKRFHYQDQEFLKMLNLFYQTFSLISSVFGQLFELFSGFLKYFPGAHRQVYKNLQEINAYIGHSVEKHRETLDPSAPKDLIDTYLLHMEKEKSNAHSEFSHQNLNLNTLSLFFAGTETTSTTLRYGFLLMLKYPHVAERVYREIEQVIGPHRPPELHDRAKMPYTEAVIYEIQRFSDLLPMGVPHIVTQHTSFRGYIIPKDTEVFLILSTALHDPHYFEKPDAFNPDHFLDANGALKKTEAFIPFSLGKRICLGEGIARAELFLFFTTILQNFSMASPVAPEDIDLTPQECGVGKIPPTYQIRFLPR
Procedure: as §1

CYP2C19 = CYP2C19 (UniProt P33261)
Procedure: as §1

CYP2C8 = target: T3, CYP2C8 (UniProt P10632)
T3 sequence (whole entry): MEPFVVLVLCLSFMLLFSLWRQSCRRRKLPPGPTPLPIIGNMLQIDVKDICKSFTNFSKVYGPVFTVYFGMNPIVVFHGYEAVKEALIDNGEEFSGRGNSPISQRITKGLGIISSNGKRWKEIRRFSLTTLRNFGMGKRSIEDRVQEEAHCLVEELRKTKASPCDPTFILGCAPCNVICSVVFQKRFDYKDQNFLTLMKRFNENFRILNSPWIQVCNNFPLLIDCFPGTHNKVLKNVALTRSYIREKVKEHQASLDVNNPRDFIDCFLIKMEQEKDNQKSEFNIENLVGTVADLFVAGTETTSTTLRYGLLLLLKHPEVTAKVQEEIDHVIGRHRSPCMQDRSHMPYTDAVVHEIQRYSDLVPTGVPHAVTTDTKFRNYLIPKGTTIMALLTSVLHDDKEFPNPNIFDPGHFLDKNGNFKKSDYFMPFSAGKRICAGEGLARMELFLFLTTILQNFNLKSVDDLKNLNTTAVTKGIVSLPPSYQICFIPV
Procedure: as §1

CYP2C9 = CYP2C9 (UniProt P11712)
Procedure: as §1

CYP2D6 = CYP2D6 (UniProt P10635)
Procedure: as §1

CYP3A4 = CYP3A4 (UniProt P08684)
Procedure: as §1

Chain of CYP2C9 (P11712 whole entry): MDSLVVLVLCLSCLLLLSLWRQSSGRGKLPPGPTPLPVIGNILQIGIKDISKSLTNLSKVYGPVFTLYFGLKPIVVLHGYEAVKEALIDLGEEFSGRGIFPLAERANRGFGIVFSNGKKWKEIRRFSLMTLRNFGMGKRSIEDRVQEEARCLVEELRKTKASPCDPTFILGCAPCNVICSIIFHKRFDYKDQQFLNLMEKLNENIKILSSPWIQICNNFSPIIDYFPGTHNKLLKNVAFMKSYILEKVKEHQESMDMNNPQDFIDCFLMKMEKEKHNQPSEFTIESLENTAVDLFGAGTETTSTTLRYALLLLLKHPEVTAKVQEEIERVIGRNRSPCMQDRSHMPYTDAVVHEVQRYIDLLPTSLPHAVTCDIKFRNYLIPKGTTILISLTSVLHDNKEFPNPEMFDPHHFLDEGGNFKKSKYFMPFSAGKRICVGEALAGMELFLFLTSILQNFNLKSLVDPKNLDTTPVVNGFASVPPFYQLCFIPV
Chain of CYP2C19 (P33261 whole entry): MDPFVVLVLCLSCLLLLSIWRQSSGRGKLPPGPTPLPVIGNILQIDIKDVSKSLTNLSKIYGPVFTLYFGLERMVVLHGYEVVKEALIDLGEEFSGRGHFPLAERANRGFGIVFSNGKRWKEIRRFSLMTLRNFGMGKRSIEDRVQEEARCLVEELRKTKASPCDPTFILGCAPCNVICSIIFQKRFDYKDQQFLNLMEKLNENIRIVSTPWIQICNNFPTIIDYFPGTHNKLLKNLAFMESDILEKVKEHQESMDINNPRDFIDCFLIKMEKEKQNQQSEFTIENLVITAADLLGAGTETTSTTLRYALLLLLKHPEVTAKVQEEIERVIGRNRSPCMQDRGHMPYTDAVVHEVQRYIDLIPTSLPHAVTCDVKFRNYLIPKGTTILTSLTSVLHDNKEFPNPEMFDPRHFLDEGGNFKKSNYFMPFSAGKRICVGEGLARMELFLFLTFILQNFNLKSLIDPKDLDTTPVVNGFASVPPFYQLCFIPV
Chain of CYP2D6 (P10635 whole entry): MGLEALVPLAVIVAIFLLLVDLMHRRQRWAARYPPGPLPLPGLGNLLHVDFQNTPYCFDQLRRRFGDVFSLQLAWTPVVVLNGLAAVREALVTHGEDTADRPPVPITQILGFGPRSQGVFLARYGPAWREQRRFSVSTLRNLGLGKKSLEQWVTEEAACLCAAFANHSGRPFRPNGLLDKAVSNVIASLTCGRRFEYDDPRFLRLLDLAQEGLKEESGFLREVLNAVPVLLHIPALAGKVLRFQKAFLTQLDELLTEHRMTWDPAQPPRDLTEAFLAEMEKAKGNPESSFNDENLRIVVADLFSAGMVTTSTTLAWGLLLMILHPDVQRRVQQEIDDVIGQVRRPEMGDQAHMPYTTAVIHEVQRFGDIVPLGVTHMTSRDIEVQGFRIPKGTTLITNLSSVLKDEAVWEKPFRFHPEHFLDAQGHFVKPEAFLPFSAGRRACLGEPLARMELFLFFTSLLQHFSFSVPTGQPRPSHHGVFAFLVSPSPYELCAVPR
Chain of CYP3A4 (P08684 whole entry): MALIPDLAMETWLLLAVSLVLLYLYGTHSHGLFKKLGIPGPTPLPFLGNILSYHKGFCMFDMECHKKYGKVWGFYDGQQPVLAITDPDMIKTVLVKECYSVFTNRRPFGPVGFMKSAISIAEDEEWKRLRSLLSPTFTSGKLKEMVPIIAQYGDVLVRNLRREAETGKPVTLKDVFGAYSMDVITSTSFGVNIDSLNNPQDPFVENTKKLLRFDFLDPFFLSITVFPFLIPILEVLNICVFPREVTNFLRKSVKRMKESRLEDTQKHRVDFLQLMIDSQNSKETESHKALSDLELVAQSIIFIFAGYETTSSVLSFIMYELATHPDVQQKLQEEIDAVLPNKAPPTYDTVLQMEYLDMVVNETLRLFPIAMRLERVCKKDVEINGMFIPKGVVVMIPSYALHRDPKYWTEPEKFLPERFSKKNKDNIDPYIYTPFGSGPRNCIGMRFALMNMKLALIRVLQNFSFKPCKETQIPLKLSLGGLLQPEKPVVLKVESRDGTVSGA

c1ccc2c(c1)ccc1ccc3ccccc3c12 [benzo[c]phenanthrene]
CYP enzyme activity
Conditions | CYP1A2 | CYP2B6 | CYP2C8 | CYP2C9 | CYP2C19 | CYP2D6 | CYP3A4
1 µM, treatment time 12 h | 1.2 | 1.02 | 0.945 | 1 | 0.916 | 0.94 | 0.867
1 µM, treatment time 24 h | 1.09 | 1.04 | 0.9596 | 0.961 | 0.911 | 0.773 | 0.843
1 µM, treatment time 48 h | 0.925 | 0.921 | 0.962 | 0.922 | 1.04 | 0.772 | 0.834
5 µM, treatment time 12 h | 1.34 | 1.31 | 0.947 | 1.02 | 1.04 | 0.992 | 0.926
5 µM, treatment time 24 h | 1.28 | 1.81 | 1.04 | 1.15 | 1.09 | 1.05 | 1.002
5 µM, treatment time 48 h | 1.28 | 2.27 | 1.09 | 1.28 | 1.19 | 1.05 | 1.13
10 µM, treatment time 12 h | 1.5 | 1.27 | 0.958 | 1.01 | 1.03 | 1.04 | 0.849
10 µM, treatment time 24 h | 1.5 | 2.02 | 1.13 | 1.103 | 1.03 | 1.13 | 0.999
10 µM, treatment time 48 h | 1.46 | 2.87 | 1.08 | 1.21 | 1.19 | 1.08 | 1.2

c1ccc2c(c1)-c1cccc3c1c-2cc1ccccc13 [benzo[b]fluoranthene]
CYP enzyme activity
Conditions | CYP1A2 | CYP2B6 | CYP2C8 | CYP2C9 | CYP2C19 | CYP2D6 | CYP3A4
1 µM, treatment time 12 h | 2.68 | 1.04 | 0.95 | 0.95 | 0.955 | 1.24 | 0.857
1 µM, treatment time 24 h | 1.78 | 1.23 | 0.906 | 0.907 | 0.885 | 0.924 | 0.751
1 µM, treatment time 48 h | 1.75 | 0.832 | 0.908 | 0.891 | 0.984 | 0.763 | 0.732
5 µM, treatment time 12 h | 3.81 | 1.29 | 0.951 | 0.978 | 1.05 | 1.38 | 0.925
5 µM, treatment time 24 h | 9.11 | 2.08 | 0.817 | 0.951 | 0.951 | 1.52 | 0.823
5 µM, treatment time 48 h | 5.4 | 1.33 | 0.717 | 0.82 | 0.976 | 0.934 | 0.732
10 µM, treatment time 12 h | 0.947 | 1.21 | 0.929 | 0.939 | 0.995 | 1.19 | 0.875
10 µM, treatment time 24 h | 13.2 | 1.71 | 0.758 | 0.842 | 0.876 | 1.87 | 0.723
10 µM, treatment time 48 h | 7.06 | 1.4 | 0.444 | 0.602 | 0.667 | 0.823 | 0.495

c1ccc2c(c1)cc1ccc3cccc4c5ccccc5c2c1c34 [dibenzo[a,l]pyrene]
CYP enzyme activity
Conditions | CYP1A2 | CYP2B6 | CYP2C8 | CYP2C9 | CYP2C19 | CYP2D6 | CYP3A4
1 µM, treatment time 12 h | 2.04 | 0.84 | 1 | 0.921 | 0.768 | 1.11 | 0.927
1 µM, treatment time 24 h | 1.35 | 0.906 | 0.987 | 0.918 | 0.823 | 0.798 | 0.778
1 µM, treatment time 48 h | 0.763 | 0.735 | 0.78 | 0.804 | 0.763 | 0.552 | 0.619
5 µM, treatment time 12 h | 1.61 | 0.611 | 0.644 | 0.753 | 0.741 | 1.28 | 0.768
5 µM, treatment time 24 h | 2.27 | 1.19 | 0.714 | 0.89 | 0.781 | 0.791 | 0.672
5 µM, treatment time 48 h | 0.603 | 0.584 | 0.326 | 0.472 | 0.53 | 0.288 | 0.385
10 µM, treatment time 12 h | 0.515 | 0.313 | 0.627 | 0.395 | 0.469 | 1.19 | 0.543
10 µM, treatment time 24 h | 1.39 | 1.22 | 0.639 | 0.732 | 0.689 | 0.789 | 0.471
10 µM, treatment time 48 h | 0.286 | 0.354 | 0.166 | 0.233 | 0.257 | 0.212 | 0.118

c1cc2ccc3cccc4ccc(c1)c2c34 [pyrene]
CYP enzyme activity
Conditions | CYP1A2 | CYP2B6 | CYP2C8 | CYP2C9 | CYP2C19 | CYP2D6 | CYP3A4
1 µM, treatment time 12 h | 1.18 | 1.1 | 1.01 | 0.925 | 0.893 | 0.973 | 0.912
1 µM, treatment time 24 h | 1.15 | 1.42 | 1.04 | 1.07 | 1.04 | 0.894 | 0.91
1 µM, treatment time 48 h | 1.07 | 1.3 | 1.07 | 1.18 | 1.16 | 0.996 | 0.931
5 µM, treatment time 12 h | 1.32 | 1.41 | 0.921 | 0.982 | 1.06 | 1.07 | 0.987
5 µM, treatment time 24 h | 1.42 | 2.27 | 1.07 | 1.08 | 1.06 | 1.04 | 1.01
5 µM, treatment time 48 h | 1.28 | 2.75 | 1.1 | 1.14 | 1.15 | 0.942 | 1.07
10 µM, treatment time 12 h | 1.31 | 1.33 | 0.924 | 0.914 | 1.02 | 1.11 | 0.916
10 µM, treatment time 24 h | 1.57 | 2.4 | 1.14 | 1.08 | 1.18 | 1.2 | 1.21
10 µM, treatment time 48 h | 1.52 | 3.6 | 1.15 | 1.45 | 1.3 | 1.12 | 1.32

c1ccc2c(c1)-c1cccc3cccc-2c13 [fluoranthene]
CYP enzyme activity
Conditions | CYP1A2 | CYP2B6 | CYP2C8 | CYP2C9 | CYP2C19 | CYP2D6 | CYP3A4
1 µM, treatment time 12 h | 1.01 | 1.2 | 1.01 | 1.02 | 0.972 | 0.989 | 0.901
1 µM, treatment time 24 h | 0.943 | 1.58 | 1.06 | 1.09 | 0.974 | 0.981 | 0.98
1 µM, treatment time 48 h | 1.07 | 2.05 | 1.14 | 1.18 | 1.1 | 0.91 | 1.03
5 µM, treatment time 12 h | 1.33 | 1.35 | 0.987 | 1.17 | 1.09 | 1.16 | 1.01
5 µM, treatment time 24 h | 1.09 | 2.28 | 1.07 | 1.3 | 1.16 | 1.11 | 1.16
5 µM, treatment time 48 h | 1.27 | 3.59 | 1.14 | 1.34 | 1.26 | 1.06 | 1.28
10 µM, treatment time 12 h | 1.41 | 1.25 | 0.988 | 1.15 | 0.999 | 1.18 | 1
10 µM, treatment time 24 h | 1.07 | 2.01 | 1.04 | 1.11 | 0.995 | 1.08 | 1.03
10 µM, treatment time 48 h | 1.312 | 3.74 | 1.2 | 1.39 | 1.22 | 1.06 | 1.35

c1ccc2c(c1)cc1ccc3cccc4ccc2c1c34 [benzo[a]pyrene]
CYP enzyme activity
Conditions | CYP1A2 | CYP2B6 | CYP2C8 | CYP2C9 | CYP2C19 | CYP2D6 | CYP3A4
1 µM, treatment time 12 h | 2.02 | 0.982 | 0.886 | 0.945 | 0.898 | 1.11 | 0.849
1 µM, treatment time 24 h | 1.3 | 1.14 | 0.925 | 1 | 0.895 | 0.883 | 0.812
1 µM, treatment time 48 h | 0.816 | 0.753 | 0.895 | 0.896 | 0.85 | 0.691 | 0.734
5 µM, treatment time 12 h | 7.75 | 1.22 | 0.671 | 0.85 | 0.908 | 2.43 | 1.04
5 µM, treatment time 24 h | 4.55 | 1.61 | 0.774 | 1.03 | 0.847 | 1.07 | 0.834
5 µM, treatment time 48 h | 1.04 | 0.977 | 0.686 | 0.773 | 0.855 | 0.598 | 0.678
10 µM, treatment time 12 h | 5.63 | 0.881 | 0.464 | 0.67 | 0.761 | 2.24 | 1.05
10 µM, treatment time 24 h | 7.76 | 1.52 | 0.66 | 0.872 | 0.835 | 1.34 | 0.762
10 µM, treatment time 48 h | 1.24 | 0.954 | 0.415 | 0.654 | 0.661 | 0.51 | 0.599
